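These data come from cells grown in 96-well plates and exposed to compound for 48 hours at five concentrations. TGI marks complete inhibition of growth.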 Bounds are passed on as bounds.

For 16 molecules, TGI results are on record in PubChem BioAssay (NCI).

Some test systems named below: NCI-H226 lung; SK-MEL-28 melanoma; MALME-3M melanoma; HCT-116 colon; SNB-19 CNS; DLD-1 colon; HCC-2998 colon; M19-MEL melanoma; NCI-H23 lung; TK-10 renal.
Holding throughout (test): DTP human tumour cell line panel, 48 h

Take `Nc1ncnc2c1ncn2CCCC(c1ccccc1)P(=O)(O)O` (centres undefined): the TGI in the assay on NCI-H226 lung, in the assay on SK-MEL-28 melanoma, in the assay with MALME-3M melanoma, in the assay with HCT-116 colon, in the assay with SNB-19 CNS and with DLD-1 colon was over 100 µM throughout. In addition, the TGI in the assay on HCC-2998 colon, in the assay with M19-MEL melanoma, in the assay on NCI-H23 lung and in the assay with TK-10 renal was over 100 µM in each case.

Consider `NC(=O)COc1c(Br)cc(Br)cc1Br`, for which the TGI in the assay with NCI-H226 lung, with SK-MEL-28 melanoma, in the assay with MALME-3M melanoma, in the assay on HCT-116 colon, with SNB-19 CNS and with DLD-1 colon was over 100 µM throughout. Further, the TGI with HCC-2998 colon, in the assay with M19-MEL melanoma and with NCI-H23 lung was over 100 µM each time.

On to `C[N+](C)(C)CCOC(=O)/C=C/c1cnc[nH]1`, for which the TGI in the assay with NCI-H226 lung, with SK-MEL-28 melanoma, with MALME-3M melanoma, in the assay on HCT-116 colon, in the assay with SNB-19 CNS and with DLD-1 colon was over 500 µM each time. The TGI in the assay with HCC-2998 colon, with M19-MEL melanoma and in the assay on NCI-H23 lung was over 500 µM each time.

In the case of `Nc1ncnc2c1sc(=S)n2-c1ccccc1`, the TGI in the assay on NCI-H226 lung, in the assay with SK-MEL-28 melanoma, in the assay with MALME-3M melanoma, in the assay with HCT-116 colon, with SNB-19 CNS and with DLD-1 colon was over 100 µM in each case. In addition, the TGI in the assay on HCC-2998 colon, in the assay with M19-MEL melanoma, in the assay on NCI-H23 lung and in the assay with TK-10 renal was over 100 µM throughout.

For the molecule `COc1cccc2c1C(=O)c1c(O)c3c(c(O)c1C2=O)C[C@@](O)(C(=O)CN1CCOCC1)C[C@@H]3OC1CC(N)C(O)C(C)O1` (some centres undefined), the TGI with NCI-H226 lung is 8.78 µM; in the assay with SK-MEL-28 melanoma it was 29.1 µM; with MALME-3M melanoma, 14.2 µM; with HCT-116 colon, over 100 µM; in the assay on SNB-19 CNS, over 100 µM; with DLD-1 colon, over 74.4 µM. The TGI was found to be 23.3 µM in the assay with HCC-2998 colon, 18.1 µM in the assay on M19-MEL melanoma and 20.9 µM in the assay on NCI-H23 lung.

`COc1cc(N)c2[nH]c3c(C)ccc(C)c3c2c1`: the TGI with NCI-H226 lung, in the assay on SK-MEL-28 melanoma, in the assay with MALME-3M melanoma, in the assay on HCT-116 colon, in the assay on SNB-19 CNS and with DLD-1 colon was over 100 µM throughout. The TGI with HCC-2998 colon, in the assay with M19-MEL melanoma and in the assay on TK-10 renal was over 100 µM each time.

Take `COc1ccc(C2S/C(=C\c3cccc(OC)c3)C(=O)N2NC(=O)Cc2ccccc2)cc1` (centres undefined): the TGI in the assay on NCI-H226 lung, in the assay on SK-MEL-28 melanoma, in the assay on MALME-3M melanoma, in the assay on HCT-116 colon, with DLD-1 colon and with M19-MEL melanoma was over 100 µM in each case. Besides, the TGI with NCI-H23 lung and in the assay on TK-10 renal was over 100 µM each time.

Turning to `COc1cc2c(c(O)c1C)C(=O)CC(c1ccccc1)O2` (centres undefined), the TGI was 41.5 µM in the assay on NCI-H226 lung; over 100 µM in the assay with SK-MEL-28 melanoma; over 100 µM in the assay with MALME-3M melanoma; over 100 µM in the assay with HCT-116 colon; over 100 µM in the assay with DLD-1 colon; over 100 µM in the assay with HCC-2998 colon. Further, the TGI in the assay with M19-MEL melanoma was over 100 µM; with NCI-H23 lung, over 100 µM; in the assay on TK-10 renal it was 77.3 µM.

Regarding `C[N+](C)=c1ccc2nc3c(ccc4ccccc43)oc-2c1`, the TGI was 33.5 µM in the assay with NCI-H226 lung; 28.4 µM with SK-MEL-28 melanoma; 26.1 µM in the assay with MALME-3M melanoma; 20.3 µM in the assay on HCT-116 colon; 31.6 µM in the assay with SNB-19 CNS; 21.1 µM with DLD-1 colon. The TGI with HCC-2998 colon turned out to be 37.7 µM; in the assay on M19-MEL melanoma, 12.5 µM; in the assay on NCI-H23 lung it was 27.2 µM; in the assay on TK-10 renal, 31.1 µM.

Turning to `CC1(C)OC2CC3COC(=O)C3CC2O1` (centres undefined), the TGI in the assay with NCI-H226 lung, in the assay with SK-MEL-28 melanoma, with MALME-3M melanoma, in the assay with HCT-116 colon, in the assay on DLD-1 colon and with HCC-2998 colon was over 100 µM each time. For the same molecule, the TGI in the assay with M19-MEL melanoma, in the assay with NCI-H23 lung and in the assay on TK-10 renal was over 100 µM in each case.

Regarding `C/C=C/c1cc2c(c(=O)o1)C(=O)[C@@H](O)[C@H](C)O2`, the TGI with NCI-H226 lung came to 38.5 µM; in the assay with SK-MEL-28 melanoma, 29.5 µM; in the assay on MALME-3M melanoma, 32.5 µM; with HCT-116 colon, 20.1 µM; in the assay on SNB-19 CNS it was 46.1 µM; with DLD-1 colon, 20 µM. Further, the TGI in the assay with HCC-2998 colon was 24 µM; in the assay with M19-MEL melanoma, 27.2 µM; in the assay on NCI-H23 lung, 32.4 µM.

`Nc1ccc2nc(Nc3ccc(Cl)c(Cl)c3)cnc2c1`: the TGI in the assay with NCI-H226 lung is 41.8 µM; in the assay on SK-MEL-28 melanoma, 36.8 µM; in the assay with MALME-3M melanoma it was 35.3 µM; in the assay on HCT-116 colon, 33.4 µM; in the assay with SNB-19 CNS, 38.7 µM; with DLD-1 colon it was over 100 µM. The TGI with HCC-2998 colon was 29.8 µM; in the assay with M19-MEL melanoma it was 39.2 µM; in the assay on NCI-H23 lung it was 66.5 µM; in the assay on TK-10 renal, 60.6 µM.

Regarding `COC1=CC(=O)C2C(C1=O)[C@@H]1c3ccccc3OC(C)(C)[C@H]21` (some centres undefined), the TGI with NCI-H226 lung is 54.7 µM; in the assay with SK-MEL-28 melanoma, 32.8 µM; in the assay with MALME-3M melanoma, 34 µM; with HCT-116 colon, 29.7 µM; with SNB-19 CNS it was 97.7 µM; in the assay with DLD-1 colon, 34 µM. Further, the TGI is over 100 µM in the assay on HCC-2998 colon, 34.5 µM with M19-MEL melanoma, 36.9 µM in the assay on NCI-H23 lung and 38.6 µM in the assay with TK-10 renal.

Regarding `CCCCCCCCCCCCCCCCNCC(O)CN` (centres undefined), the TGI in the assay with NCI-H226 lung was 25.6 µM; in the assay on SK-MEL-28 melanoma it was 25.8 µM; in the assay on MALME-3M melanoma, 30.2 µM; with HCT-116 colon it was 3.64 µM; with SNB-19 CNS it was 36 µM; in the assay with DLD-1 colon, 3.66 µM. Moreover, the TGI with HCC-2998 colon came out at 5.84 µM; in the assay on M19-MEL melanoma, 5.79 µM; in the assay on NCI-H23 lung it was 16.8 µM.

For the molecule `Cc1c(-c2coc(-c3ccccc3)n2)c(=O)n(-c2ccccc2)n1C`, the TGI with NCI-H226 lung, in the assay with SK-MEL-28 melanoma, in the assay with MALME-3M melanoma, in the assay with HCT-116 colon, in the assay on SNB-19 CNS and with DLD-1 colon was over 100 µM throughout. For the same molecule, the TGI with HCC-2998 colon, in the assay on M19-MEL melanoma, in the assay with NCI-H23 lung and in the assay with TK-10 renal was over 100 µM each time.

Turning to `N=S(=O)(c1ccccc1)c1ccccc1`, the TGI in the assay on NCI-H226 lung, with SK-MEL-28 melanoma, in the assay on MALME-3M melanoma, in the assay on HCT-116 colon, in the assay on SNB-19 CNS and with DLD-1 colon was over 100 µM throughout. Moreover, the TGI with HCC-2998 colon, with M19-MEL melanoma and in the assay on NCI-H23 lung was over 100 µM in each case.

For orientation: TGI means the concentration giving total growth inhibition.
